# Counter-ions that a name gives are not always drawn. Like-named read-outs stand apart in the source and are kept apart here.
# Assays:
# MAC NJ211 = assay: In vitro screen versus MAC NJ211 (Alamar blue microdilution broth assay, MIC99); type: cell-based; details: read-out: MAC NJ211 MIC99
# Mtb H37Ra (ATCC 25177) = assay: In vitro screen versus Mtb H37Ra (Alamar blue microdilution broth assay, MIC99); type: cell-based, M. tuberculosis; details: Mycobacterium tuberculosis
# Method: The initial screening set and selected other compounds were tested for their inhibitory activity against Mtb H37Ra (ATCC 25177) and MAC NJ211 strains. Screening was performed at 1.28 and 12.8 μg/mL in Middlebrook 7H9 broth supplemented with 0.2% glycerol and ADC enrichment using a colorimetric (Alamar blue) microdilution broth assay by reported methods.[15]
# Mtb FtsZ = Mtb FtsZ (Mycobacterium tuberculosis, UniProt P9WN95); assay: biochemical; type: biochemical
# Sequence of Mtb FtsZ (P9WN95 whole entry): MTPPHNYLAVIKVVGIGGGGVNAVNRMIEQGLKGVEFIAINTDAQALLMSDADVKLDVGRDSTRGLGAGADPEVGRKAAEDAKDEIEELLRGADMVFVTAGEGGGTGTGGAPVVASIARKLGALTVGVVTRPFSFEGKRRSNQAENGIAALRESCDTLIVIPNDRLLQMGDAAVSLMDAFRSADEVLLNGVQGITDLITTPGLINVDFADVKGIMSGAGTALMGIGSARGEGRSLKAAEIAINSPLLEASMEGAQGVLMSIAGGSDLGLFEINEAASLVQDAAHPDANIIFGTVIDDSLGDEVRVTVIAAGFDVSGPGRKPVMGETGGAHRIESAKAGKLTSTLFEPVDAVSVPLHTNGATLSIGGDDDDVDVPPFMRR
# Mtb H37Rv = assay: In vitro qHTS assay against Mtb H37Rv (IC90); type: cell-based, M. tuberculosis; details: for IC90: read-out: Mtb H37Rv IC90; for fold more active against Mtb H37Rv than corresponding analog: 48 vs 23, 57 vs 56, 60 vs 24
# [1] = lowest drug concentration that completely inhibited growth
# [2] = lowest drug concentration that completely inhibited growth, read-out: Mtb H37Ra MIC99
# [3] = same MIC99 given in μM, read-out: Mtb H37Ra MIC99 (concentration in μM in parentheses)
# [4] = mean ± standard deviation, at least three times per assay, NA = not active up to 100 μM, read-out: Mtb FtsZ Polymerization IC50
# [5] = Mycobacterium tuberculosis, H37RV, concentration that inhibits bacterial growth by 90%
SMILES,MIC99 (MAC NJ211; [1]),MIC99 (Mtb H37Ra (ATCC 25177); [2]),IC50 (Mtb FtsZ; [4]),IC90 (Mtb H37Rv; [5]),melting point,further results
"COc1cc2c(c(OC)c1OC)-c1ccc(OC)c(=O)cc1[C@@H](NC(C)=O)CC2 [Compound 1, Colchicine]",> 64 µg/mL,,,,,MIC99 (Mtb H37Ra (ATCC 25177); read-out: Mtb H37Ra MIC99): > 64 µg/mL
"O=C(O)c1cc(O)c2c(c1)C(=O)c1cccc(O)c1C2=O [Compound 2, Rhein]",> 128 µg/mL,32 µg/mL,,,,IC50 (Mtb FtsZ): 44.6 ± 6.3 µM; MIC99 (Mtb H37Ra (ATCC 25177); [3]): 113 µM
"O=c1c(O)c(-c2ccc(O)c(O)c2)oc2cc(O)cc(O)c12 [Compound 3, Quercetin dihydrate]",,> 128 µg/mL,,,,MIC99 (MAC NJ211): > 128 µg/mL; IC50 (Mtb FtsZ): 21.7 ± 4.8 µM
"O=c1c(O)c(-c2cc(O)c(O)c(O)c2)oc2cc(O)cc(O)c12 [Compound 4, Myrcetin]",,> 128 µg/mL,,,,MIC99 (MAC NJ211): > 128 µg/mL; IC50 (Mtb FtsZ): 42.4 ± 6.3 µM
"CN(C)[C@@H]1C(O)=C(C(N)=O)C(=O)[C@@]2(O)C(O)=C3C(=O)c4c(O)cccc4[C@@](C)(O)[C@H]3C[C@@H]12 [Compound 5, Tetracycline]",,1 µg/mL,,,,IC50 (Mtb FtsZ): 87.1 ± 10.7 µM
"CN(C)c1ccc(O)c2c1C[C@H]1C[C@H]3[C@H](N(C)C)C(O)=C(C(N)=O)C(=O)[C@@]3(O)C(O)=C1C2=O [Compound 6, Minocycline]",,≤ 0.5 µg/mL,,,,IC50 (Mtb FtsZ): 37.3 ± 4.6 µM
"COc1cc2c(cc1O)CC[n+]1cc3cc(OC)c(OC)cc3cc1-2 [Compound 9, Pseudojatrorrhizine]",64 µg/mL,> 64 µg/mL,105 ± 32 µM,,,
"CC/C(=C(\c1ccccc1)c1ccc(OCCN(C)C)cc1)c1ccccc1 [Compound 11, Tamoxifen citrate]",32 µg/mL,,,,,
"Nc1nonc1C(=O)N/N=C/c1cc(Cl)cc(Cl)c1O [Compound 12, ChemBridge 5481893]",> 64 µg/mL,64 µg/mL,33.4 ± 3 µM,,,MIC99 (Mtb H37Ra (ATCC 25177); [3]): 202 µM
"CC(C)c1c(O)ccc2c1CC[C@H]1C(C)(C)CCC[C@]21C [Compound 13, Totarol]",25 µg/mL,25 µg/mL,47.5 ± 4.9 µM,,,MIC99 (Mtb H37Ra (ATCC 25177); [3]): 87.3 µM
"COc1cc(/C=C(\C#N)C(N)=O)cc(CSc2nc3ccccc3s2)c1O [Compound 15, AG-825]",,,31.7 ± 1.7 µM,,,
"CCN(CC)CCNc1nc(/C=C/c2ccc(Cl)cc2)nc2cc3ccccc3cc12 [Compound 16, Zantrin Z3]",2 µg/mL,1 µg/mL,,,,
"Oc1ccc(Cl)cc1Cc1cc(Cl)cc(Cc2cc(Cl)ccc2O)c1O [Compound 17, Zantrin Z1]",16 µg/mL,8 µg/mL,,,,
"CSc1ccc(/C=C2/C(C)=C(CC(=O)N(C)CCN(C)C)c3cc(F)ccc32)cc1 [Compound 19, (Z)-N-(2-(Dimethylamino)ethyl)-2-(5-fluoro-2-methyl-1-(4-(methylthio)benzylidene)-1H-inden-3-yl)-N-methylacetamide]",,16 µg/mL,42.3 ± 6 µM,6.67 ± 0.14 µM,,
"CNCCN(C)C(=O)CC1=C(C)/C(=C/c2ccc(SC)cc2)c2ccc(F)cc21 [Compound 23, (Z)-2-(5-Fluoro-2-methyl-1-(4-(methylthio)benzylidene)-1H-inden-3-yl)-N-methyl-N-(2-(methylamino)ethyl)acetamide]",,8 µg/mL,34.9 ± 7 µM,8.28 ± 0.33 µM,,
"CSc1ccc(/C=C2/C(C)=C(CC(=O)NCCN3CCCC3)c3cc(F)ccc32)cc1 [Compound 26, (Z)-2-(5-Fluoro-2-methyl-1-(4-(methylthio)benzylidene)-1H-inden-3-yl)-N-(2-(pyrrolidin-1-yl)ethyl)acetamide]",,8 µg/mL,33.5 ± 5.9 µM,3.04 ± 0.04 µM,106 to 108 °C,
"CSc1ccc(/C=C2/C(C)=C(CC(=O)NCc3ccc(N(C)C)cc3)c3cc(F)ccc32)cc1 [Compound 35, (Z)-N-(4-(Dimethylamino)benzyl)-2-(5-fluoro-2-methyl-1-(4-(methylthio)benzylidene)-1H-inden-3-yl)acetamide]",,64 µg/mL,22.9 ± 4.8 µM,> 100 µM,174 to 177 °C,"inhibition at 50 µM (Mtb H37Rv; Mycobacterium tuberculosis, H37RV, at 50 μM): 82%; Mtb H37Rv IC90 (Mtb H37Rv; concentration that inhibits bacterial growth by 90%): inactive"
"CCN(CC)CCNC(=O)C(C)C1=C(C)/C(=C/c2ccc(SC)cc2)c2ccc(F)cc21 (stereo not shown) [Compound 46, (Z)-N-(2-(Diethylamino)ethyl)-2-(5-fluoro-2-methyl-1-(4-(methylthio)benzylidene)-1H-inden-3-yl)propanamide]",,,,4.19 ± 0.2 µM,75 to 77 °C,
"CCCCN(CCCC)CCCNC(=O)C(C)C1=C(C)/C(=C/c2ccc(SC)cc2)c2ccc(F)cc21 (stereo not shown) [Compound 47, (Z)-N-(3-(Dibutylamino)propyl)-2-(5-fluoro-2-methyl-1-(4-(methylthio)benzylidene)-1H-inden-3-yl)propanamide]",,,,1.22 ± 0.04 µM,121 to 124 °C,
"CSc1ccc(/C=C2/C(C)=C(C(C)C(=O)NCCCN3CCCCC3C)c3cc(F)ccc32)cc1 (stereo not shown) [Compound 50, (Z)-2-(5-Fluoro-2-methyl-1-(4-(methylthio)benzylidene)-1H-inden-3-yl)-N-(3-(2-methylpiperidin-1-yl)propyl)propanamide]",,,,1.64 ± 0.07 µM,87 to 89 °C,
"CSc1ccc(/C=C2/C(C)=C(C(C)C(=O)N3CCC[C@H]3CN3CCCC3)c3cc(F)ccc32)cc1 (stereo partly drawn) [Compound 52, 2-((Z)-5-Fluoro-2-methyl-1-(4-(methylthio)benzylidene)-1H-inden-3-yl)-1-((S)-2-(pyrrolidin-1-ylmethyl)pyrrolidin-1-yl)propan-1-one]",,,,2.55 ± 0.03 µM,80 to 82 °C,
"CSc1ccc(/C=C2/C(C)=C(C(C)C(=O)N3CCC(N4CCCCC4)CC3)c3cc(F)ccc32)cc1 (stereo not shown) [Compound 53, (Z)-1-([1,4'-Bipiperidin]-1'-yl)-2-(5-fluoro-2-methyl-1-(4-(methylthio)benzylidene)-1H-inden-3-yl)propan-1-one]",,,,2.84 ± 0.06 µM,80 to 82 °C,
"CSc1ccc(/C=C2/C(C)=C(C(C)C(=O)N3CCN(CCCN(C)C)CC3)c3cc(F)ccc32)cc1 (stereo not shown) [Compound 54, (Z)-1-(4-(3-(Dimethylamino)propyl)piperazin-1-yl)-2-(5-fluoro-2-methyl-1-(4-(methylthio)benzylidene)-1H-inden-3-yl)propan-1-one]",,,,3.72 ± 0.06 µM,78 to 80 °C,
"CSc1ccc(/C=C2/C(C)=C(CC(=O)N(C)CCN(C)C(=O)C(N)C(C)C)c3cc(F)ccc32)cc1 (stereo not shown) [Compound 56, (Z)-2-Amino-N-(2-(2-(5-fluoro-2-methyl-1-(4-(methylthio)benzylidene)-1H-inden-3-yl)-N-methylacetamido)ethyl)-N,3-dimethylbutanamide]",,8 µg/mL,38 ± 6.3 µM,4.34 ± 0.06 µM,,
"CSc1ccc(/C=C2/C(C)=C(C(C)C(=O)N(C)CCN(C)C(=O)[C@@H](N)C(C)C)c3cc(F)ccc32)cc1 (stereo partly drawn) [Compound 57, (2S)-2-Amino-N-(2-(2-((Z)-5-fluoro-2-methyl-1-(4-(methylthio)benzylidene)-1H-inden-3-yl)-N-methylpropanamido)ethyl)-N,3-dimethylbutanamide]",,,,0.74 µM,60 to 62 °C,fold more active against Mtb H37Rv than corresponding analog (Mtb H37Rv): 6 fold
CSc1ccc(/C=C2/C(C)=C(CCNCc3ccccc3)c3cc(F)ccc32)cc1 [Compound 58],4 µg/mL,2 µg/mL,,2.07 ± 0.01 µM,,
"CSc1ccc(/C=C2/C(C)=C(CCNCc3ccco3)c3cc(F)ccc32)cc1 [Compound 59, (Z)-2-(5-Fluoro-2-methyl-1-(4-(methylthio)benzylidene)-1H-inden-3-yl)-N-(furan-2-ylmethyl)ethanamine]",8 µg/mL,4 µg/mL,,1.69 ± 0.06 µM,,
"CSc1ccc(/C=C2/C(C)=C(CCNCCN3CCCCC3)c3cc(F)ccc32)cc1 [Compound 60, (Z)-2-(5-Fluoro-2-methyl-1-(4-(methylthio)benzylidene)-1H-inden-3-yl)-N-(2-(piperidin-1-yl)ethyl)ethanamine]",,2 µg/mL,,,,"fold more active against Mtb H37Rv than corresponding analog (Mtb H37Rv): 1.6 fold; IC90 (Mtb H37Rv; Mycobacterium tuberculosis, H37RV): 0.88 ± 0.01 µM; MIC99 (MAC NJ211): 8 µg/mL"
CC[C@@H](CO)NCCN[C@@H](CC)CO [Ethambutol],4 to 8 µg/mL,2 to 4 µg/mL,,,,
